From ChEMBL document CHEMBL1201862, “PubChem BioAssay data set” (2004)
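Interpolation was linear, between the two tested concentrations surrounding the appropriate level; five concentrations were tested over 48 hours in 96-well plates. GI50 marks 50% less growth.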 Calls of active or inactive are those of the source. No stated cut-off is given here; in the data, active = GI50 up to about 1.1 µM and inactive = higher.

Assays:
Experiment in all cases: NCI anticancer screen, dose series, 48 h
[1] = tested on: COLO 205
[2] = tested on: NCI-H522
[3] = tested on: UACC-62
[4] = tested on: KM12
[5] = tested on: RPMI-8226
[6] = tested on: U-251
[7] = tested on: HCC 2998
[8] = tested on: UACC-257
[9] = tested on: NCI-H460
[10] = tested on: SNB-19
[11] = tested on: SNB-75
[12] = tested on: HCT-116
[13] = tested on: K562
[14] = tested on: OVCAR-3
[15] = tested on: BT-549
[16] = tested on: MCF7
[17] = tested on: SW-620
[18] = tested on: A549
[19] = tested on: ACHN
[20] = tested on: HOP-92

NC(CC(O)(c1ccccc1)c1ccccc1)c1ccccc1S (configuration not stated)
GI50 [1]: 15.4 µM (inactive) | GI50 [2]: 16.6 µM (inactive) | GI50 [3]: 15.5 µM (inactive) | GI50 [4]: 12.5 µM (inactive) | GI50 [5]: 22.2 µM (inactive) | GI50 [6]: 15.1 µM (inactive) | GI50 [7]: 17.3 µM (inactive) | GI50 [8]: 18.9 µM (inactive) | GI50 [9]: 18 µM (inactive) | GI50 [10]: 16.4 µM (inactive) | GI50 [11]: 15 µM (inactive) | GI50 [12]: 13.2 µM (inactive) | GI50 [13]: 16.4 µM (inactive) | GI50 [14]: 16 µM (inactive) | GI50 [15]: 14.7 µM (inactive) | GI50 [16]: 15.2 µM (inactive) | GI50 [17]: 16.7 µM (inactive) | GI50 [18]: 14.7 µM (inactive) | GI50 [19]: 13.1 µM (inactive)

Cc1cccc(Nc2cnc(N)nc2N)c1
GI50 [1]: > 100 µM (inactive) | GI50 [2]: > 100 µM (inactive) | GI50 [3]: > 100 µM (inactive) | GI50 [4]: > 100 µM (inactive) | GI50 [5]: > 100 µM (inactive) | GI50 [20]: > 100 µM (inactive) | GI50 [6]: > 100 µM (inactive) | GI50 [7]: > 100 µM (inactive) | GI50 [8]: > 100 µM (inactive) | GI50 [10]: > 100 µM (inactive) | GI50 [11]: 83 µM (inactive) | GI50 [12]: > 100 µM (inactive) | GI50 [13]: > 100 µM (inactive) | GI50 [14]: > 100 µM (inactive) | GI50 [16]: > 100 µM (inactive) | GI50 [17]: > 100 µM (inactive) | GI50 [18]: > 100 µM (inactive) | GI50 [19]: > 100 µM (inactive)

NC1CC(=O)c2c1sc(Cl)c2Cl (configuration not stated)
GI50 [1]: > 100 µM (inactive) | GI50 [3]: > 100 µM (inactive) | GI50 [4]: > 100 µM (inactive) | GI50 [5]: > 100 µM (inactive) | GI50 [6]: > 100 µM (inactive) | GI50 [7]: > 100 µM (inactive) | GI50 [8]: > 100 µM (inactive) | GI50 [9]: > 100 µM (inactive) | GI50 [10]: > 100 µM (inactive) | GI50 [11]: > 100 µM (inactive) | GI50 [12]: > 100 µM (inactive) | GI50 [13]: > 100 µM (inactive) | GI50 [14]: > 100 µM (inactive) | GI50 [15]: > 100 µM (inactive) | GI50 [16]: > 100 µM (inactive) | GI50 [17]: > 100 µM (inactive) | GI50 [18]: > 100 µM (inactive) | GI50 [19]: > 100 µM (inactive)

CC[C@H](C)[C@H]1NC(=O)[C@@H](NC(=O)[C@@H](CC(C)C)N(C)C(=O)C2CCCN2C(=O)[C@H](C)O)[C@@H](C)OC(=O)[C@@H]2Cc3ccccc3CN2C(=O)[C@@H]2CCCN2C(=O)[C@H](CC(C)C)NC(=O)[C@@H](C)C(=O)[C@H](C(C)C)OC(=O)C[C@@H]1O (some centres not stated)
GI50 [1]: 0.269 µM (active) | GI50 [2]: 0.443 µM (active) | GI50 [3]: 0.106 µM (active) | GI50 [4]: 0.104 µM (active) | GI50 [5]: 0.399 µM (active) | GI50 [20]: 1.58 µM (inactive) | GI50 [6]: 0.0586 µM (active) | GI50 [7]: 0.154 µM (active) | GI50 [8]: 0.351 µM (active) | GI50 [9]: 0.171 µM (active) | GI50 [10]: 0.207 µM (active) | GI50 [11]: 0.121 µM (active) | GI50 [12]: 0.144 µM (active) | GI50 [13]: 0.175 µM (active) | GI50 [14]: 0.286 µM (active) | GI50 [16]: 0.0596 µM (active) | GI50 [17]: 0.555 µM (active) | GI50 [18]: 0.434 µM (active) | GI50 [19]: 1.55 µM (inactive)

CSC12c3cc(C)n(-c4ccccc4)c3CC(C)(C)CN1C(=O)C2Oc1ccccc1 (configuration not stated)
GI50 [1]: 30.5 µM (inactive) | GI50 [3]: 29.3 µM (inactive) | GI50 [4]: > 100 µM (inactive) | GI50 [5]: 7.08 µM (inactive) | GI50 [20]: 7.66 µM (inactive) | GI50 [6]: 93.5 µM (inactive) | GI50 [7]: 41.2 µM (inactive) | GI50 [8]: 19.1 µM (inactive) | GI50 [9]: 29.1 µM (inactive) | GI50 [10]: > 100 µM (inactive) | GI50 [11]: > 100 µM (inactive) | GI50 [12]: 12.1 µM (inactive) | GI50 [13]: 32.1 µM (inactive) | GI50 [14]: > 100 µM (inactive) | GI50 [15]: 85.7 µM (inactive) | GI50 [16]: 18 µM (inactive) | GI50 [17]: 40.1 µM (inactive) | GI50 [18]: 11.7 µM (inactive) | GI50 [19]: 36 µM (inactive)

O=[As](O)(O)c1ccc(/N=N/c2ccc([As](=O)(O)O)cc2)cc1
GI50 [2]: > 100 µM (inactive) | GI50 [3]: > 100 µM (inactive) | GI50 [4]: > 100 µM (inactive) | GI50 [20]: > 100 µM (inactive) | GI50 [6]: > 100 µM (inactive) | GI50 [8]: > 100 µM (inactive) | GI50 [9]: > 100 µM (inactive) | GI50 [10]: > 100 µM (inactive) | GI50 [12]: > 100 µM (inactive) | GI50 [13]: > 100 µM (inactive) | GI50 [14]: > 100 µM (inactive) | GI50 [15]: > 100 µM (inactive) | GI50 [17]: > 100 µM (inactive) | GI50 [18]: > 100 µM (inactive) | GI50 [19]: > 100 µM (inactive)

COc1cccc(-c2cccc(SC)n2)n1
GI50 [1]: 19.1 µM (inactive) | GI50 [3]: 36.2 µM (inactive) | GI50 [4]: 34 µM (inactive) | GI50 [5]: 23.4 µM (inactive) | GI50 [20]: 19.5 µM (inactive) | GI50 [6]: 36.7 µM (inactive) | GI50 [7]: 23.4 µM (inactive) | GI50 [8]: 21 µM (inactive) | GI50 [9]: 29 µM (inactive) | GI50 [10]: 40.7 µM (inactive) | GI50 [11]: 26.4 µM (inactive) | GI50 [12]: 28.4 µM (inactive) | GI50 [13]: 26.2 µM (inactive) | GI50 [14]: 20.8 µM (inactive) | GI50 [15]: 31.3 µM (inactive) | GI50 [16]: 31.3 µM (inactive) | GI50 [17]: 32 µM (inactive) | GI50 [18]: 23.8 µM (inactive) | GI50 [19]: 36.8 µM (inactive)
